Test results taken from publication PMC9668969 (Nature Communications, 2022).
Several values for one entry are separate records, joined by “and”; a condition that tells them apart may be missing. Equal values may be shown once. Read-outs that look alike come from different tables or passages of the source.

Columns and labels:
WT ELIC [1] = details: without BaCl2; cited from earlier work
WT ELIC [2] = assay: Giant liposome excised patch-clamp recordings (2:1:1 POPC:POPE:POPG); format: biochemical, Erwinia chrysanthemi
Method: (§1) Giant liposome formation and excised patch-clamp recordings of ELIC were performed as previously described[12],[13]. 0.5 mg of WT ELIC, ELIC3 or ELIC5 were reconstituted in 5 mg of 2:1:1 POPC:POPE:POPG liposomes, using DDM destabilization and biobeads. 10 mM MOPS pH 7 and 150 mM NaCl (MOPS buffer) was used throughout. Proteoliposomes were pelleted and resuspended in ~80 µl, and frozen in 10 µl aliquots. Giant liposomes were formed by dehydrating 10 µl of proteoliposomes on a glass coverslip in a vacuum desiccator for ~20 min followed by rehydration with 100 µl of MOPS buffer overnight at 4 °C and 2 hr at RT the following day. The giant liposomes were resuspended by pipetting and applied to a recording chamber. The liposomes were allowed to settle for 15 min, after which free liposomes and debris were removed by exchanging the bath solution. Bath and pipette solutions contained MOPS buffer and 0.5 mM BaCl2 (Sigma). […] Rapid application or washout of agonist were performed using a three-barreled flowpipe mounted to and controlled by a SF-77B fast perfusion system (Warner Instrument Corporation). […] Deactivation time courses were fit with a single exponential while the time course of desensitization was fit with a double exponential. Weighted time constants were calculated using Eq. 1:1 Weighted Tau=A1×τ1+(A2×τ2)/A1+A2 where A1 and A2 are the amplitudes of the first and second exponential components. The data were collected and analyzed using pClamp10.4 software.

[3] = target: T1, ELIC5 (P254G/C300S/V261Y/G319F/I320F) (Dickeya chrysanthemi, UniProt P0C7B7, C299S/G318F/I319F/P253G/V260Y); assay: as above; format: biochemical, Erwinia chrysanthemi
T1 construct: host or cells: OverExpress C43 (DE3) E. coli
Method: as §1

[4] = target: T2, ELIC3 (V261Y/G319F/I320F) (Dickeya chrysanthemi, UniProt P0C7B7, G318F/I319F/V260Y); assay: as above; format: biochemical, Erwinia chrysanthemi
T2 construct: host or cells: OverExpress C43 (DE3) E. coli
Method: as §1

[5] = 2:1:1 giant liposomes, 0.5 mM BaCl2, Hill n set to 2, read-out: EC50 of peak current dose response

T1 sequence (P0C7B7 whole entry P253G/V260Y/C299S/G318F/I319F): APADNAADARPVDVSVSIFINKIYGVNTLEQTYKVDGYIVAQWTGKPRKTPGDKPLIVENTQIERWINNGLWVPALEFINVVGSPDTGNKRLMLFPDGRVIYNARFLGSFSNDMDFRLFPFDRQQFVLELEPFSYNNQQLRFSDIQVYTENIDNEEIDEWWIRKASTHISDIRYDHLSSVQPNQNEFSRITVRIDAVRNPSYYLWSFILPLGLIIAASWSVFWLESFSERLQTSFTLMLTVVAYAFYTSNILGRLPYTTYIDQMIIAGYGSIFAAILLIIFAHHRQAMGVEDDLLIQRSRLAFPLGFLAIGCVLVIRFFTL
T2 sequence (P0C7B7 whole entry V260Y/G318F/I319F): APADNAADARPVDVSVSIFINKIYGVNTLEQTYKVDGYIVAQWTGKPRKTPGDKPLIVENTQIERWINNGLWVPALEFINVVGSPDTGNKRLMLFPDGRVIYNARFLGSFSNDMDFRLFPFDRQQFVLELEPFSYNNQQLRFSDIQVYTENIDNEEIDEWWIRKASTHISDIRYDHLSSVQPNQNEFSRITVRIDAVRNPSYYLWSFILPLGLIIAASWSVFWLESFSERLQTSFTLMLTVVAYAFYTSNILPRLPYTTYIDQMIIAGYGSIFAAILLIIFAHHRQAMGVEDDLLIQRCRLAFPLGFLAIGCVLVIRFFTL

NCCS [cysteamine]
EC50 (WT ELIC [1]): 1000 to 2000 µM
Peak response (normalized) (WT ELIC [2]; 0.3 mM cysteamine): 0.003114
Peak response (normalized) (WT ELIC [2]; 1 mM cysteamine): 0.01807
Peak response (normalized) (WT ELIC [2]; 3 mM cysteamine): 0.2085
Relative current at 60s, Average (WT ELIC [2]; 10 mM Cys): 0.05101
Time constant of deactivation, Deactivation Tau (WT ELIC [2]; 10 mM Cys): 0.1636 s
Time constant of desensitizaton, Weighted Tau (WT ELIC [2]; 10 mM Cys): 4.764 s
Peak response (normalized) (WT ELIC [2]; 10 mM cysteamine): 0.7416
Relative current at 60s, Average (WT ELIC [2]; 30 mM Cys): 0.03561
Time constant of deactivation, Deactivation Tau (WT ELIC [2]; 30 mM Cys): 0.4008 s
Time constant of desensitizaton, Weighted Tau (WT ELIC [2]; 30 mM Cys): 2.506 s
Peak response (normalized) (WT ELIC [2]; 30 mM cysteamine): 1
EC50 (WT ELIC [2]; [5]): 5200 µM and 4000 to 5000 µM
Relative current at 60s ([3]; 10 mM Cys): No evidence of desensitization
Time constant of deactivation, Deactivation Tau ([3]; 10 mM Cys): 195.719 s
Time constant of desensitizaton ([3]; 10 mM Cys): No evidence of desensitization
deactivation rate, fold slower than WT ([3]; after removal of 10 mM cysteamine): ~ 1000 ×
desensitization ([3]; in the presence of 10 mM cysteamine): no evidence of desensitization
Peak response (normalized) ([4]; 0.3 mM cysteamine): 0.02035
Peak response (normalized) ([4]; 1 mM cysteamine): 0.4462
Peak response (normalized) ([4]; 3 mM cysteamine): 0.7955
Relative current at 60s, Average ([4]; 10 mM Cys): 0.1185
Time constant of deactivation, Deactivation Tau ([4]; 10 mM Cys): 1.081 s
Time constant of desensitizaton, Weighted Tau ([4]; 10 mM Cys): 12.8369 s
Peak response (normalized) ([4]; 10 mM cysteamine): 1.022
Relative current at 60s, Average ([4]; 30 mM Cys): 0.08245
Time constant of deactivation, Deactivation Tau ([4]; 30 mM Cys): 1.658 s
Time constant of desensitizaton, Weighted Tau ([4]; 30 mM Cys): 8.1999 s
Peak response (normalized) ([4]; 30 mM cysteamine): 1
EC50 [4, 5]: 1200 ± 200 µM
